Values of other authors, collected in patent US20100196443A1, “USE OF CORDYCEPS SPECIES OR EXTRACT THEREOF IN THE EGG PRODUCTION” (A P NUTRIPHARM PTE. LTD., priority 2007, published 2010).

System: RNA cell
Settings: Siev et al., 1969

## Nc1ncnc2c1ncn2[C@@H]1O[C@H](CO)C[C@H]1O [cordycepin, 3-deoxyadenosine]
  nucleolar RNA synthesis: can inhibit nucleolar RNA synthesis
